Where a SMILES comes first, the peptide text is derived from it. [ ]: non-standard residue; d: D form. The star is where a group is joined. Hydrocinnamoyl = O=C(CCc1ccccc1)*; Nle = CCCC[C@H](N)C(=O)O; Ac5c = NC1(C(=O)O)CCCC1; Deg = CCC(N)(CC)C(=O)O
Key:
[1] = molecular target: T1, Calpain-1 catalytic subunit (Sus scrofa, UniProt P35750); assay: Inhibition of pig erythrocyte mu-calpain
T1 sequence (P35750 whole entry): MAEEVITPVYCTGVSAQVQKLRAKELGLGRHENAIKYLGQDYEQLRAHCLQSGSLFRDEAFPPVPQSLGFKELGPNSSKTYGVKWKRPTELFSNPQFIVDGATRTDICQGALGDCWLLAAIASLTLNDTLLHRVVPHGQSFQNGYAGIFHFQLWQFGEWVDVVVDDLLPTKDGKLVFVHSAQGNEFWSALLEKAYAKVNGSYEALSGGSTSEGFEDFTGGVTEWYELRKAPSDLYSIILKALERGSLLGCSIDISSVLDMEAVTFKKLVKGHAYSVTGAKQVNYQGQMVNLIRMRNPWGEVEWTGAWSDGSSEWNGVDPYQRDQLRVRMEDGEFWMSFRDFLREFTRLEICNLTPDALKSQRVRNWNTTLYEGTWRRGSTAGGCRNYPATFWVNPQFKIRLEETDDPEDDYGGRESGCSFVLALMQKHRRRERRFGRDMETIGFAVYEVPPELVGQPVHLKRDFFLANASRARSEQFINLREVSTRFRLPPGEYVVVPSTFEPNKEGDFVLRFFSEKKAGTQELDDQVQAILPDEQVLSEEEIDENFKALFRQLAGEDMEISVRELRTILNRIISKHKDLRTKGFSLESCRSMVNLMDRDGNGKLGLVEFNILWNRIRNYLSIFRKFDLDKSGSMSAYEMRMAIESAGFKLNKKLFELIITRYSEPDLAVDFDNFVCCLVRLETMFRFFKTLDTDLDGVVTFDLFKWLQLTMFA

Cathepsin B = Cathepsin B (Homo sapiens, UniProt P07858); assay: Inhibition of human liver cathepsin B
[2] = Selectivity ratio of Ki for human liver cathepsin B to Ki for pig erythrocyte mu-calpain

| Compound | Ki [1] [µM] | Ki (Cathepsin B) [µM] | Selectivity ratio [2] |
| --- | --- | --- | --- |
| CCCC[C@@H](C=O)NC(=O)[C@H](CC(C)C)NC(=O)[C@H](CC(C)C)NC(C)=O (Ac-Leu-Leu-[Nle]-aldehyde) | 0.19 | 0.15 | – |
| O=C[C@H](Cc1ccccc1)NC(=O)C1(NC(=O)CCc2ccccc2)CCCC1 (Hydrocinnamoyl-[Ac5c]-Phe-aldehyde) | 1.94 | 0.88 | 0.45 |
| CCC(CC)(NC(=O)CCc1ccccc1)C(=O)N[C@H](C=O)Cc1ccccc1 (Hydrocinnamoyl-[Deg]-Phe-aldehyde) | 0.08 | 2.91 | 36.4 |

From ChEMBL document CHEMBL1139408, “Synthesis and calpain inhibitory activity of peptidomimetic compounds with constrained amino acids at the P2 position” (Bioorg Med Chem Lett, 2008)
